{
  "source": "patent US9901523B2",
  "about": "“Oral care products comprising zinc oxide and trimethylglycine” (Colgate-Palmolive Company, priority 2012, dated 2018)",
  "origin": "cited, not measured here",
  "settings": "water at 30° C.",
  "data": [
    {"smiles": "[O]=[Zn]", "note": "[Zinc oxide]", "values": [
      {"measurement": "solubility of zinc oxide", "value": "about 0.16 mg per 100 ml of water"}
    ]}
  ]
}
